Measurements taken from article PMC13086964, “USP7 deubiquitinase stabilizes FAN1 to support DNA crosslink repair and suppress CAG repeat expansion” (Nature Communications, 2026).

Key:
RPE-1 p53 KO cells = assay: apoptosis: PARP-1 and caspase-3 cleavage, RPE-1 p53 KO; type: cell-based, human; details: RPE-1 p53 KO cells depleted of FAN1, USP7, or both, MMC 1 μg/ml, 48 h
Protocol: If not stated otherwise, cells were lysed in RIPA buffer (50 mM Tris-HCl, pH 7.5, 150 mM NaCl, 1% IGEPAL, 0.5% sodium deoxycholate, 0.1% SDS) supplemented with phosphatase inhibitors (20 mM NaF and 1 mM Na3VO4) and protease inhibitors (1 mM benzamidine and 0.1 mM PMSF), incubated with Benzonase (Merck) for at least 30 min at 4 °C, and clarified by centrifugation. Proteins were resolved by SDS-PAGE and transferred to nitrocellulose membranes. Immunoblots were performed with the indicated antibodies, and proteins were visualized using the Advansta WesternBright ECL reagent and the Fusion Solo S imaging system. Relative protein levels were determined by quantification of the protein of interest band intensity normalized to the loading control with the ImageJ software. […]
the mean (dashed lines) are indicated. Representative images are shown (bottom). Scale bar: 10 μm.
This experiment was repeated three times. (B) QIBC analysis of chromatin-bound GFP-FAN1 foci in U2OSGFP-FAN1 cells were concurrently mock-treated (-) or treated (+) with MMC (150 ng/ml) and either FT671 (10 µM) or GNE-6640 (10 µM) for 24 h. […] 24 h later, cells were either mock-treated (-) or treated (+) with MMC (1 μg/ml) for 48 h and whole-cell lysates were analysed by immunoblotting. […]
Relative FAN1 protein levels were determined by quantification of FAN1 band intensity (normalized to GAPDH) with the ImageJ software. […]

HeLa cells = assay: clonogenic survival assay, HeLa parental; type: cell-based, human; details: MMC 10, 20, and 40 ng/ml, 24 h, n=4
Protocol: HeLa and RPE-1 p53 KO cells were transfected with the indicated siRNA. The next day, the cells were seeded in six-well plates. The next day, the cells were treated with MMC for 24 h. Plates were then washed twice with 2 ml of PBS before adding fresh growth medium to the cells, that were then cultured for 13 days at 37 °C before fixation with crystal violet solution [0.5% crystal violet and 20% ethanol (w/v)]. For analysis, plates were scanned and analysed with the ImageJ Plugin ColonyArea using the parameter “intensity percent”. […]
the mean (dashed lines) are indicated. Representative images are shown (bottom). Scale bar: 10 μm. […]
Western blot analysis of HeLa cells depleted of the indicated factors. (E) Clonogenic survival assay of the HeLa cells depleted of the indicated factors (Ctrl: black circle; FANCD2: red square; USP7#1: inverted blue triangle; USP7#2: cyan triangle; RAD18: brown diamond) and exposed to increasing doses of MMC for 24 h. Viability of untreated cells was defined as 100%. Data are presented as the means ± SD of four biological replicates (n=4). Representative images are shown (left). (F) Western blot analysis of HeLa and HeLa FAN1 KO cells depleted of the indicated factors. […]

## CO[C@@]12[C@H](COC(N)=O)C3=C(C(=O)C(C)=C(N)C3=O)N1C[C@@H]1N[C@@H]12 [MMC, Mitomycin C]
RPE-1 p53 KO cells
  apoptosis (cleavage of PARP-1 and caspase-3): largely recapitulated
HeLa cells
  MMC sensitivity, RAD18 or FANCD2 depletion: more pronounced effects
HeLa cells; two independent USP7 siRNA
  MMC sensitivity, USP7 depletion: only a modest increase MMC sensitivity
